Results published in patent US20030211170A1, “Use of physiologically acceptable vanadium compounds, salts and complexes” (GHO'ST HOLDING B.V., priority 1997, published 2003).

Assays:
[1] = system: deep burn wounds (skin/dermis structures); experiment: Deep burn wound model in the Yorkshire pig; assay type: in vivo, Yorkshire White; details: administered intravenously in a single dose
Excerpt: The Yorkshire pig has been chosen as the experimental animal because of all animal species this domestic pig seems to be the one with morphological and functional skin characteristics nearest to human skin and so best fulfils the requirements of a model for human skin. In basic architecture it resembles human skin in the relative thickness of the epidermis and dermis, the presence of epidermal ridges, a distinct dermal papillary layer and a deep layer of subdermal fat. Compared to human the elastic fibre content of porcine dermis is relatively low, but higher than in any other species. […] Studies on the proliferation rate of porcine epidermis show parallels with those of humans. The keratinous proteins are similar. Unlike the skin of rodents, the follicular pattern in pigs and humans is relatively sparse and arranged as single hairs or in groups of two or three follicles. […] The regulation of body temperature by the skin is more evident in humans than in the pig. In the skin of the pig no eccrine glands are found. It does have apocrine glands, but their role in thermoregulation remains debatable. The vascular anatomy of pig skin consists of a three layered network; lower, mid-dermal and sub epidermal. The size, orientation and distribution of the vessels are strikingly similar to human skin, but it does differ from humans in that the sub epidermal network is less dense. The vascularisation of the lower region of the follicle corresponds to that in humans. The healing of deep dermal burns, which depends on this phenomenon, might also be analogous. Studies on the thermal properties of porcine skin as a function of depth have been performed by measuring the tissue water content.
Protocol 1a: Twelve identical deep burn wounds were inflicted in each animal. The animal model used is developed in the Burn Research Institute (Beverwijk, The Netherlands) and is a standard for all of the experimental burn wound research. The model is also accepted by the animal experimental commission of the University of Amsterdam. […]

[2] = system: hearts of phenobarbital anaesthetized rats (myocardial tissue); experiment: Infarct size after 60 minutes coronary artery occlusion and 180 minutes of reperfusion in anaesthetized rats; assay type: in vivo, rat; details: normothermia (36.5-37.5° C.), 3.3 mg/kg bodyweight i.v. bolus in 10 minutes, 25 minutes prior to CAO, 60 min CAO, 180 min reperfusion, mean ± standard error margin, n=6, P<0.001 vs control (69±2%)
Experimental: Area at risk (AR) and infarcted area (IA) were determined in hearts of phenobarbital anaesthetized rats after 60 minutes coronary artery occlusion (CAO) and 180 minutes of reperfusion. […] The mean AR expressed as percentage of the left yentricle was not different between the control and the experimental group (42±2% and 42±3%, respectively).

Structure (SMILES): Cc1occc(=O)c1[O-].Cc1occc(=O)c1[O-].[O]=[V+2] [bis(maltolato)oxovanadium(IV)]
- contractions of scars [1]: considerably reduced
- healing of burn wounds [1]: faster healing
- structures present in the dermis (deep vascular plexus, hair-adnexes (sebaceous glands), sweat glands) [1]: protected
- IA/AR ratio (infarcted area / area at risk) [2]: 45±3%
